Measurements reported in PMC6694155, “PTPσ inhibitors promote hematopoietic stem cell regeneration” (Nature Communications, 2019).
Values joined by “and” are separate entries in the source; they are usually repeats but may differ in a detail not shown here. Equal values may be shown once. “Also recorded” adds a separate entry of the source.

Legend:
[1] = Pharmacokinetic study for DJ001; type: in vivo, mouse; conditions: for concentration of DJ001 in the peripheral blood: 5 mg/kg single subcutaneous dose
Experimental: PK studies for DJ001 were performed at Cyprotex (Study Number CYP1426-R1) under non-good laboratory practice conditions. Mice were subcutaneously injected with a single dose of 5 mg/kg DJ001 (in 10% DMSO, 40% phosphate-buffered saline (PBS), 50% polyethylene glycol and plasma samples were collected at 0.08, 0.25, 0.5, 1, 2, 4, 8, and 24 h. Samples were crashed with three volumes of methanol and analytical internal standard (propranolol). Supernatant was subjected to liquid chromatography-mass spectrometry/mass spectrometry (MS/MS) using an acetonitrile-water gradient system and electrospray ionization in multiple reaction monitoring mode for MS detection. All plasma samples were compared with an internal calibration curve prepared in mouse blank plasma.

adult C57BL/6 mice = assay: 30 day systemic treatment of non-irradiated mice (blood counts, BM HSC/progenitors, CFCs); type: in vivo, mouse
Experimental: Femurs and tibiae were collected from killed C57BL/6 or Ptprs^−/− mice and flushed with IMDM containing 10% FBS and 1% penicillin–streptomycin for BM cells. PB was collected through sub-mandibular puncture. Cells were filtered through a 40 μM strainer and then treated with ACK lysis buffer (Sigma Aldrich) before antibody staining for flow cytometry. For KSL and CD150^+CD48^−KSL cell analysis, BM cells were stained with allophycocyanin (APC)-and Cy7-conjugated anti-mouse Sca1 (BD Biosciences, #560654, 1:100), phycoerythrin (PE)-conjugated anti-mouse c-kit (BD Biosciences, #553355, 1:100), V450 lineage cocktail (BD Biosciences, 561301, 1:10), Alexa Fluor 488-conjugated anti-mouse CD48 (BioLegend, #103414, 1:100), and Alexa Fluor 647-conjugated anti-mouse CD150 (Biolegend, #115918, 1:100) antibodies. For MEP, CMP, GMP, and CLP cell analysis, BM cells were stained with APC-Cy7-conjugated anti-mouse Sca1 (BD Biosciences, #560654, 1:100), PE-conjugated anti-mouse ckit (BD Biosciences, #553355, 1:100), V450 lineage cocktail (BD Biosciences, #561301; 1:10), Alexa Fluor 488-conjugated anti-mouse CD127 (BD Biosciences, #561533, 1:100), Alexa Fluor 647-conjugated anti-mouse CD34 (BD Biosciences, #560230; 1:100), and BV605-conjugated anti-mouse CD16/32 antibodies (BD Biosciences, #563006; 1:100). For donor engraftment analysis in transplanted mice, PB or BM cells were stained with BV605-conjugated anti-mouse CD45.2 (BioLegend, #109841, 1:100), fluorescein isothiocyanate (FITC)-conjugated anti-mouse CD45.1 (BD Biosciences, #553775, 1:100), PE-conjugated anti-mouse Mac-1 (BD Biosciences, #557397, 1:100) and anti-mouse Gr1 (BD Biosciences, #553128, 1:100), V450-conjugated anti-mouse CD3 (BD Biosciences, #561389, 1:100), and APC-Cy7-conjugated anti-mouse B220 (BD Biosciences, 552094, 1:100) antibodies.
CFC assays (colony-forming unit-granulocyte monocyte), burst-forming unit-erythroid, and CFU-GEMM were performed using MethoCult GF M3434 (Stemcell Technologies)[6]. For all in vitro assays, BM CD34^−KSL cells, KSL cells, and Lin^− cells were cultured in TSF media (IMDM, 10% FBS, 1% pen-strep, 20 ng/mL recombinant mouse TPO, 125 ng/mL recombinant mouse SCF, 50 ng/mL recombinant mouse Flt3 ligand). Recombinant mouse SCF, Flt3 ligand, and TPO were purchased from R&D Systems. For competitive repopulation assays, BM cells were isolated from donor 10–12-week-old female CD45.2^+ mice. Recipient 10-week-old female CD45.1^+ B6.SJL mice were irradiated with 950 cGy TBI using a Cs137 irradiator and donor BM cells were administered via tail vein injection along with a competing dose of 1 × 10^5 non-irradiated host BM cells. Multilineage donor hematopoietic cell engraftment was measured in the PB by flow cytometry.

human CD34+CD38− cells = assay: Annexin V/7AAD apoptosis assay of irradiated human BM CD34+ cells; type: cell-based
Experimental: Eight- to ten-week-old female C57BL/6 mice were irradiated with 500 cGy TBI followed by subcutaneous injections of 5 mg/kg DJ001 or vehicle, or 5 mg/kg DJ001 plus 40 mg/kg EHT1864. Twenty four hours after irradiation, mice were killed to collect BM cells for Annexin V apoptosis analysis. BM cells were stained with APC-Cy7-conjugated anti-mouse Sca1 (BD Biosciences, #560654, 1:100), PE-conjugated anti-ckit (BD Biosciences, #553355, 1:100), and V450 lineage cocktail (BD Biosciences, #561301, 1:10) antibodies for 30 min at 4 °C. Cells were then resuspended in 1× Annexin V binding buffer and then stained with FITC-conjugated anti-Annexin V antibody (BD Biosciences, #556547,1:50) and 7AAD antibody (BD Biosciences, #559925, 1:40)[68]. For in vitro human BM cell apoptosis assays, isolated human BM CD34^+ cells were plated into 96-well plates and then irradiated with 300 cGy. Immediately after irradiation, cells were treated with 5 μg/mL DJ001 or vehicle for 24 h and then collected for Annexin V cell apoptosis analysis. For cell cycle analysis, BM KSL cells were irradiated at 300 cGy and then treated with 1 μg/mL DJ001 or vehicle for 36 h. Subsequently, cells were resuspended in 200 μL of PBS, fixed with 1 mL of ice-cold fixation solution (0.25% Saponin, 2.5% PFA, 2% fetal calf serum (FCS) in PBS), and incubated for 30 min on ice. Cells were washed in Saponin buffer (0.25% Saponin, 2% FCS in PBS) and resuspended in 200 μL of Saponin buffer containing 20 μL of FITC-conjugated anti-Ki67 antibody (BD Biosciences, #556026, 1:10) and 1 μL of RNase (Qiagen, #19101, 100 mg/mL). After 30 min of incubation, cells were washed in Saponin buffer and resuspended for flow analysis in 200 μL of Saponin buffer containing 5 μL 7AAD (BD Biosciences, #559925, 1:40).

[2] = 30 day treatment of non-irradiated mice, individual mice
[3] = 30 day treatment of non-irradiated mice, replicates
[4] = irradiated human BM CD34+ cells, replicates

## O=C(/C=C\Nc1cccc([N+](=O)[O-])c1)c1ccccc1 [DJ001, (Z)-3-((3-nitrophenyl)amino)-1-phenylprop-2-en-1-one]
[1]; through + 24 hours following administration
  concentration of DJ001 in the peripheral blood: approximately 10 ng/ml
[1]; within 1 hour after administration
  concentration of DJ001 in the peripheral blood: 100 ng/mL
[1]; 5 mg/kg subcutaneously × 1, over several hours post injection
  DJ001 concentrations in the PB: 10 to 100 ng/mL
[1]; 0.08 Hours, individual mice
  Supplementary Figure 4f: Concentration: 170 ng/mL and 54.7 ng/mL and 61.1 ng/mL
[1]; 0.25 Hours, individual mice
  Supplementary Figure 4f: Concentration: 159 ng/mL and 93.5 ng/mL
[1]; 0.5 Hours, individual mice
  Supplementary Figure 4f: Concentration: 113 ng/mL and 133 ng/mL and 60.5 ng/mL
[1]; 1 Hours, individual mice
  Supplementary Figure 4f: Concentration: 40.5 ng/mL and 40.7 ng/mL
[1]; 2 Hours, individual mice
  Supplementary Figure 4f: Concentration: 35.3 ng/mL and 19.5 ng/mL
[1]; 4 Hours, individual mice
  Supplementary Figure 4f: Concentration: 5.8 ng/mL and 6.7 ng/mL
[1]; 8 Hours, individual mice
  Supplementary Figure 4f: Concentration: 1.7 ng/mL and 7.8 ng/mL and 12.4 ng/mL
[1]; 24 Hours, individual mice
  Supplementary Figure 4f: Concentration: 2.8 ng/mL and 2.3 ng/mL and 8.9 ng/mL
[1]; C57BL/6, mouse, plasma, subcutaneous, 5 mg/kg, 0.25 Hours, individual mice, read-out: Supplementary Figure 4f: Concentration
  concentration at 0.25 h: 113 ng/mL
[1]; C57BL/6, mouse, plasma, subcutaneous, 5 mg/kg, 1 Hours, individual mice, read-out: Supplementary Figure 4f: Concentration
  concentration at 1 h: 79.5 ng/mL
[1]; C57BL/6, mouse, plasma, subcutaneous, 5 mg/kg, 2 Hours, individual mice, read-out: Supplementary Figure 4f: Concentration
  concentration at 2 h: 32.9 ng/mL
[1]; C57BL/6, mouse, plasma, subcutaneous, 5 mg/kg, 4 Hours, individual mice, read-out: Supplementary Figure 4f: Concentration
  concentration at 4 h: 6.5 ng/mL
Adult C57BL/6 mice; [2]
  Supplementary Figure 3c (center left panel): blood counts: 0.82 and 1.16 and 1.29 and 0.87 and 1.1 and 1.4 and 0.98
  Supplementary Figure 3c (center right panel): blood counts: 4.18 and 4.99 and 3.87 and 3.78 and 3.15 and 4.96 and 3.86
  Supplementary Figure 3c (left panel): blood counts: 5.14 and 6.28 and 5.54 and 5.44 and 4.5 and 5.46 and 7.08
  Supplementary Figure 3c (right panel): blood counts: 982 and 1048 and 1026 and 1004 and 1184 and 1209 and 1110
  Supplementary Figure 3d (center panel): BM HSC/progenitors: 3.5181 and 6.1488 and 9.9568 and 8.316 and 4.0147 and 7.046 and 6.2794
  Supplementary Figure 3d (left panel): BM HSC/progenitors: 1.912 and 2.52 and 3.92 and 3.024 and 2.624 and 2.168 and 3.376
  Supplementary Figure 3d (right panel): BM HSC/progenitors: 3.375 and 1.086 and 2.798 and 5.06 and 3.054 and 1.789 and 4.039
Adult C57BL/6 mice; [3]
  Supplementary Figure 3e: BFU-E: 0
  Supplementary Figure 3e: CFU-GEMM: 0 (3×) and 1 (2×) and 2
  Supplementary Figure 3e: CFU-GM: 10 and 7 and 8 and 6 (2×) and 9
Adult C57BL/6 mice; non-irradiated mice, 5 mg/kg subcutaneously every other day for 30 days, 5 mg/kg
  complete blood counts, BM HSC or progenitor cell content, BM CFCs vs vehicle: no significant changes; also recorded: caused no expansion of HSCs, progenitors, or mature blood counts
Human CD34+CD38− cells; 24 h after 300 cGy
  radiation-induced apoptosis of human CD34+CD38− cells: decreased radiation-induced apoptosis
Human CD34+CD38− cells; [4]
  Figure 5c (left panel): Annexin V/7AAD assay: 85.79 and 85.23 and 84.4 and 88.36 and 87.91 and 86.9 and 86.4 and 88.8 and 87.8 and 88
  Figure 5c (right panel): Annexin V/7AAD assay: 10.98 and 10.1 and 10.94 and 7.63 and 8.04 and 12.5 and 13.3 and 11 and 12.1 and 11.7
